In the NIST ThermoML archive (doi:10.1016/j.tca.2014.04.026):

Assay: molar heat capacity at constant pressure
Conditions: 101 kPa, Liquid, Small sample (50 mg) DSC

CCn1cc[n+](C)c1.N#C[C-](C#N)C#N [1-ethyl-3-methyl-1H-imidazolium tricyanomethanide]
Conditions	molar heat capacity at constant pressure [J/K/mol]
296.2 K	357
300.2 K	360
304.2 K	362
308.2 K	364
312.2 K	366
316.2 K	367
320.2 K	369
324.2 K	370
328.2 K	372
332.2 K	374
336.2 K	377
340.2 K	379
344.2 K	382
348.2 K	384
352.2 K	387
356.2 K	390
360.2 K	393
364.2 K	396
368.2 K	399
372.2 K	403
